The text below walks through data of patent publication US9220700B2, “Cysteine for physiological injection” (Cornell University, priority 2009, dated 2015).

One data set has as its system neuromuscular blockade. Briefly: Reversibility of neuromuscular blockade effects by administration of thiol compounds. Format: in vivo. Particulars: administration of thiol compounds such as cysteine (L or D) or glutathione.
Data set [1] relates to neuromuscular blockade produced by CW002. Briefly: Reversal of CW002 neuromuscular blockade (recovery of muscle twitch) by cysteine in anesthetized beagles. Type of data set: in vivo. The following applies: 0.08 mg/kg CW002, cysteine given 1 minute after CW002. As for the experimental part:
Three anesthetized male beagles received CW002. After 1 minute and complete loss of muscle twitch, D-cysteine was administered at dosages of 10, 20, 50 or 100 mg/kg. Each dose was given as a single experiment separated from other experiments by at least 7 days. The rate and time to complete recovery of muscle twitch in each animal was determined.

The test system of data set [2] is anesthetized male beagles. Particulars: 100 mg/kg; previous work by the inventors; cited from earlier work.
In the next data set the test system is rats. In words: L-cysteine toxicology in rats. Format: in vivo. The following applies: conscious rats; bolus injections of 750 mg/kg intravenously. The text has this:
This Example describes toxicology studies performed using FDA guidelines.

For data set [3], the system named is neuromuscular blockade produced by CW002. The following applies: previous study (Sunaga et al.); cited from earlier work.
The nature of data set [4]: Natural pH, solubility and precipitation of cysteine solutions (general statements). Type of data set: physicochemical.

Consider `COc1ccc(CC2c3cc(OC)c(OC)cc3CC[N+]2(C)CCCOC(=O)/C=C/C(=O)OCCC[N+]2(C)CCc3cc(OC)c(OC)cc3C2Cc2ccc(OC)c(OC)c2)cc1OC` (centres unmarked) [CW002], for which the “Reversibility of neuromuscular blockade effects by thiol compounds” value in the data set on neuromuscular blockade is recorded as “reversible”.

Regarding `COc1ccc(C[C@@H]2c3cc(OC)c(OC)cc3CC[N@@+]2(C)CCCOC(=O)/C=C\C(=O)OCCC[N@+]2(C)CCc3cc(OC)c(OC)cc3[C@H]2Cc2cc(OC)c(OC)c(OC)c2)cc1OC` [CW 011], the “Reversibility of neuromuscular blockade effects by thiol compounds” value in the data set on neuromuscular blockade is reported as “reversible”.

For `N[C@H](CS)C(=O)O` [D-cysteine], in data set [1], the “Dose range effective for reversal of CW002” value was in the range of 30 to 50 mg/kg.

With `N[C@@H](CS)C(=O)O` [L-cysteine], in data set [2], the “Effect on blood pressure (previous work)” value is reported as “modest increase in blood pressure”. In addition, the “Clinical, biochemical, or histological evidence of organ toxicity” value in the data set on rats is reported as “No animals exhibited clinical, biochemical, or histological evidence of organ toxicity”. Moreover, the “Dose range effective for reversal of CW002 (previously described)” value in data set [3] was 30 to 50 mg/kg.

Take `N[C@@H](CS)C(=O)O` [cysteine]: the solubility in data set [4] (base form, read-out: Solubility of cysteine in its base form) is at most 50 mg/mL. Also, the “Precipitation of cysteine solutions adjusted with sodium hydroxide” value in data set [4] (pH values above 3) is recorded as “rapid cystine precipitation”.
